Assay [1] has as its target T1, Cysteinyl leukotriene receptor 1 (Homo sapiens, UniProt Q9Y271).
T1 sequence (Q9Y271 whole entry): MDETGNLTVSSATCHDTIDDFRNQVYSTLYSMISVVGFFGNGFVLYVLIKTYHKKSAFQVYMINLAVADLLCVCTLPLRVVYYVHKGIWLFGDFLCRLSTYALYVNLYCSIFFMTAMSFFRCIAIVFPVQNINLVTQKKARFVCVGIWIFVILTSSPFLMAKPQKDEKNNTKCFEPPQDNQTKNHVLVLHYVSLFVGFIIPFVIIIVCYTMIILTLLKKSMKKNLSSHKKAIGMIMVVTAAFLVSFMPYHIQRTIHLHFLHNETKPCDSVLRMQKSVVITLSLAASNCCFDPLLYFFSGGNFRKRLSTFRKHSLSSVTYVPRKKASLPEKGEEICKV
The assay can be described thus: Antagonist activity against CysLT1 receptor (unknown origin) expressed in HEK293 cells assessed as inhibition of LTD4-induced calcium mobilization pre-incubated for 10 mins before LTD4 addition by Fluo-4 AM dye based fluorimetric assay. It is filed as functional, cell-based. Background: A change in cytosolic calcium serves as a functional read-out for many receptors and channels.

Assay [2] deals with T2, Cysteinyl leukotriene receptor 2 (Homo sapiens, UniProt Q9NS75).
T2 sequence (Q9NS75 whole entry): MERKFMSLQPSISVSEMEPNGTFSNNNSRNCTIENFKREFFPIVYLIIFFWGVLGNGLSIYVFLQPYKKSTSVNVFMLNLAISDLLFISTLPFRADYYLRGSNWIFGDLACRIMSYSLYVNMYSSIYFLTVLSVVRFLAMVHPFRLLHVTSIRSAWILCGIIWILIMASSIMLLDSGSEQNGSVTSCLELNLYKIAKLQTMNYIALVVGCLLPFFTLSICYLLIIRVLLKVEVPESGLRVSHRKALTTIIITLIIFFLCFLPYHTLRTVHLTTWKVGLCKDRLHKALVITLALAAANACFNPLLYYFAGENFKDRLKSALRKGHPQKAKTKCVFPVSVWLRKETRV
As to the kind of experiment: Antagonist activity against CysLT2 receptor (unknown origin) expressed in HEK293 cells assessed as inhibition of LTD4-induced calcium mobilization pre-incubated for 10 mins before LTD4 addition by Fluo-4 AM dye based fluorimetric assay. The class given is functional, cell-based.

Assay [3] addresses T3, Cysteinyl leukotriene receptor 1 (Mus musculus) (UniProt Q99JA4).
T3 sequence (whole entry): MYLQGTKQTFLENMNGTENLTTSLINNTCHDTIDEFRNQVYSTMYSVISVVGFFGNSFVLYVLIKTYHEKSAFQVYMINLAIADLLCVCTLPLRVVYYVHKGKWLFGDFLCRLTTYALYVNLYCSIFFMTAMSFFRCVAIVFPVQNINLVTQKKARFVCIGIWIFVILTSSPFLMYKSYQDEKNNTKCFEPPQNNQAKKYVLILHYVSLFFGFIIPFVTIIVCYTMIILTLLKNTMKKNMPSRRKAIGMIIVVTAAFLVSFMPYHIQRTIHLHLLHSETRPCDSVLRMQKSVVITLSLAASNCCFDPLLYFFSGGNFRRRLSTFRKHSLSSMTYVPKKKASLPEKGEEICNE
The assay can be described thus: Antagonist activity at LTD4 receptor in splenocytes isolated from MOG(35 to 55 residues) containing CFA immunized and pertussis toxin-induced C57BL/6 mouse experimental autoimmune encephalomyelitis model assessed as inhibition of LTD4-induced leukocyte chemotaxis at 100 nM after 1.5 hrs by flow cytometric analysis. It is filed as cell-based. In general terms: A flow cytometer gives signals particle by particle.

The target of assay [4] is T3, Cysteinyl leukotriene receptor 1 (Mus musculus). The assay can be described thus: Antagonist activity at LTD4 receptor in splenocytes isolated from MOG(35 to 55 residues) containing CFA immunized and pertussis toxin-induced C57BL/6 mouse experimental autoimmune encephalomyelitis model assessed as inhibition of LTD4-induced leukocyte chemotaxis at 10 nM after 1.5 hrs by flow cytometric analysis. The class given is cell-based.

For assay [5] the target is unchanged. The settings on record: C57BL/6, at 1 µM.

Active and inactive are the calls of the source. The rule behind the calls is not given here.

For the molecule `O=C(/C=C/c1c(C(=O)O)[nH]c2cc(F)cc(F)c12)Nc1cccc(/C=C/c2ccc3ccc(Cl)cc3n2)c1`, the results for the IC50 in assay [1] and in assay [2] were 0.038 µM and 76 µM, respectively.

Regarding `O=C(/C=C/c1c(C(=O)O)[nH]c2ccc(F)cc12)Nc1cccc(/C=C/c2ccc3ccc(Cl)cc3n2)c1`, in assay [3], the inhibition (usually the relative decrease from the control value, in per cent) is > 50%. For the same molecule, in assay [4], the inhibition entry is “Active”. Moreover, the IC50 – broadly, the point on the concentration scale where inhibition reaches its midpoint – in assay [1] came to 0.0078 µM; in assay [2], 46 µM.

On to `O=C(O)c1ccc(OCCCc2ccc(OCCCCOc3ccccc3)cc2)c(C(=O)NC2CCCC(C(=O)O)C2)c1` (stereo unspecified), for which the IC50 in assay [1] is > 2.5 µM.

For the molecule `CCCCCOC(=O)/C=C/c1c(C(=O)O)[nH]c2cc(Cl)cc(Cl)c12`, the IC50 in assay [1] and in assay [2] was > 100 µM throughout.

As for `O=C(/C=C/c1c(C(=O)O)[nH]c2c(Cl)cccc12)Nc1cccc(/C=C/c2ccc3ccc(Cl)cc3n2)c1`, the IC50 is 0.016 µM in assay [1] and > 100 µM in assay [2].

Consider `N#CCCCCOC(=O)/C=C/c1c(C(=O)O)[nH]c2cc(Cl)cc(Cl)c12`, for which the IC50 in assay [1] and in assay [2] was > 100 µM each time.

For the molecule `O=C(CCc1c(C(=O)O)[nH]c2ccccc12)Nc1cccc(/C=C/c2ccc3ccc(Cl)cc3n2)c1`, the figures for the IC50 in assay [1] and in assay [2] were 0.058 µM and 50 µM, respectively.

Regarding `CC(C)(O)c1ccccc1CC[C@@H](SCC1(CC(=O)O)CC1)c1cccc(/C=C/c2ccc3ccc(Cl)cc3n2)c1`, the inhibition in assay [5] is 50%.

`O=C(/C=C/c1c(C(=O)O)[nH]c2ccccc12)Nc1cccc(/C=C/c2ccc3ccc(Cl)cc3n2)c1`: in assay [3], the inhibition is > 50%. The values for the IC50 in assay [1] and in assay [2] were 0.009 µM and 58 µM, respectively.

`O=C(O)c1[nH]c2ccccc2c1C(=O)Nc1cccc(/C=C/c2ccc3ccc(Cl)cc3n2)c1`: the IC50 was 0.035 µM in assay [1] and 23 µM in assay [2].

As for `O=C(/C=C/c1c(C(=O)O)[nH]c2cc(Cl)cc(Cl)c12)OCCCc1ccccc1`, the IC50 in assay [1] and in assay [2] was > 100 µM in each case.

Regarding `COc1ccc2[nH]c(C(=O)O)c(/C=C/C(=O)Nc3cccc(/C=C/c4ccc5ccc(Cl)cc5n4)c3)c2c1`, the values for the IC50 in assay [1] and in assay [2] were 0.025 µM and 46 µM, respectively.

As for `O=C(/C=C/c1c(C(=O)O)[nH]c2cc(Cl)ccc12)Nc1cccc(/C=C/c2ccc3ccc(Cl)cc3n2)c1`, the IC50 in assay [1] is 0.022 µM; in assay [2] it was 87 µM.

On to `CC(C)CCCOC(=O)/C=C/c1c(C(=O)O)[nH]c2cc(Cl)cc(Cl)c12`, for which the IC50 in assay [1] and in assay [2] was > 100 µM each time.

Consider `O=C(/C=C/c1c(C(=O)O)[nH]c2cc(Cl)cc(Cl)c12)OCCc1ccccc1`, for which the IC50 in assay [1] and in assay [2] was > 100 µM each time.

For the molecule `O=C(/C=C/c1c(C(=O)O)[nH]c2cc(Cl)cc(Cl)c12)OCc1cccc(/C=C/c2ccc3ccc(Cl)cc3n2)c1`, the inhibition in assay [5] was found to be 50%. Also, the figures for the IC50 in assay [1] and in assay [2] were 0.66 µM and > 100 µM, respectively.

As for `COc1cccc2c(/C=C/C(=O)Nc3cccc(/C=C/c4ccc5ccc(Cl)cc5n4)c3)c(C(=O)O)[nH]c12`, the inhibition in assay [3] is > 50%. The inhibition entry in assay [4] was “Active”. In addition, the IC50 in assay [1] is 0.0059 µM; in assay [2], 15 µM.

Take `O=C(/C=C/c1c(C(=O)O)[nH]c2ccc(Cl)cc12)Nc1cccc(/C=C/c2ccc3ccc(Cl)cc3n2)c1`: the IC50 in assay [1] was 0.017 µM; in assay [2] it was > 100 µM.

`O=C(/C=C/c1c(C(=O)O)[nH]c2cc(Cl)cc(Cl)c12)Oc1ccccc1`: the IC50 in assay [1] and in assay [2] was > 100 µM in each case.

With `O=C(/C=C/c1c(C(=O)O)[nH]c2cc(Cl)cc(Cl)c12)OC1CCCCC1`, the IC50 in assay [1] and in assay [2] was > 100 µM each time.

In the case of `O=C(/C=C/c1c(C(=O)O)[nH]c2ccccc12)OCc1cccc(/C=C/c2ccc3ccc(Cl)cc3n2)c1`, the IC50 in assay [1] was 0.12 µM; in assay [2] it was > 100 µM.

Consider `O=C(/C=C/c1c(C(=O)O)[nH]c2cc(Cl)cc(Cl)c12)OCC1CCCCC1`, for which the IC50 in assay [1] and in assay [2] was > 100 µM throughout.

In the case of `O=C(/C=C/c1c(C(=O)O)[nH]c2cc(Cl)cc(Cl)c12)OCCCCc1ccccc1`, the IC50 in assay [1] and in assay [2] was > 100 µM in each case.

Regarding `O=C(/C=C/c1c[nH]c2cc(Cl)cc(Cl)c12)OCc1cccc(/C=C/c2ccc3ccc(Cl)cc3n2)c1`, the IC50 in assay [1] is 31 µM; in assay [2], > 100 µM.

Turning to `O=C(/C=C/c1c(C(=O)O)[nH]c2cccc(Cl)c12)Nc1cccc(/C=C/c2ccc3ccc(Cl)cc3n2)c1`, the results for the IC50 in assay [1] and in assay [2] were 0.067 µM and 36 µM, respectively.

Regarding `COc1ccc2c(/C=C/C(=O)Nc3cccc(/C=C/c4ccc5ccc(Cl)cc5n4)c3)c(C(=O)O)[nH]c2c1`, in assay [3], the inhibition was > 50%. For the same molecule, the IC50 was 0.012 µM in assay [1] and > 100 µM in assay [2].

For the molecule `O=C(/C=C/c1c(C(=O)O)[nH]c2cc(Cl)cc(Cl)c12)Nc1cccc(/C=C/c2ccc3ccc(Cl)cc3n2)c1`, the results for the IC50 in assay [1] and in assay [2] were 0.29 µM and > 100 µM, respectively.

As to `O=C(/C=C/c1c(C(=O)O)[nH]c2cc(Cl)cc(Cl)c12)OCc1ccccc1`, the IC50 in assay [1] and in assay [2] was > 100 µM in each case.

(Values after ChEMBL document CHEMBL3808374, “Discovery of 3-Substituted 1H-Indole-2-carboxylic Acid Derivatives as a Novel Class of CysLT1 Selective Antagonists” (ACS Med Chem Lett, 2016).)
